The Ki is the dissociation constant of the complex between target and ligand, obtained from inhibition or displacement. A low value points to higher affinity.

The target in this experiment is T1, cloned human H3 receptors (Homo sapiens, UniProt Q9Y5N1).
T1 construct: expressed in transfected cells; host or cells: SK-N-MC cells
T1 sequence (Q9Y5N1 whole entry): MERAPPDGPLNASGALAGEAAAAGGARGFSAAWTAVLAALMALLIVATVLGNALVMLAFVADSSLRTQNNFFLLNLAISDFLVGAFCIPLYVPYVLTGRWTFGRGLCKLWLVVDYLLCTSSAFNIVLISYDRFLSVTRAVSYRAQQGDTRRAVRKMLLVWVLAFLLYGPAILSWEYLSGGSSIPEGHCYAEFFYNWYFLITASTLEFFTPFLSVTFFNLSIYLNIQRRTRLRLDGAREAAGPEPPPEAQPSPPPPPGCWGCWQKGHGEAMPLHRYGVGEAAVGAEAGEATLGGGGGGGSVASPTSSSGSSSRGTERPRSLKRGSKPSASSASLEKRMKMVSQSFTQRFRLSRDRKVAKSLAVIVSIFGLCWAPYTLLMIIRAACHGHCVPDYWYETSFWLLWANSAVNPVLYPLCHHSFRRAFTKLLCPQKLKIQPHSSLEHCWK
In words: H3 Receptor Binding (Human). Conditions: cloned human H3 receptors stably expressed in SK-N-MC cells; average of the results obtained. As to the method:
Binding of compounds to the cloned human H3 receptors, stably expressed in SK-N-MC cells, was performed as described by Barbier, A. J. et al. (Br. J. Pharmacol. 2004, 143(5), 649-661). Data for compounds tested in this assay are presented in Table 1 as an average of the results obtained.
As for `COc1ccc(CC(=O)N2CCc3cc(C(=O)N4CCC[C@H]4CN4CCCC4)ccc3C2)cc1` [Example 61], the Ki turned out to be 7 nM.

`O=C(c1ccc2c(c1)CCN(Cc1ccc(C(F)(F)F)cc1)C2)N1CCN(C2CC2)CC1` [Example 23, (4-Cyclopropyl-piperazin-1-yl)-[2-(4-trifluoromethyl-benzyl)-1,2,3,4-tetrahydro-isoquinolin-6-yl]-methanone] had a Ki of 114 nM.

Take `O=C(c1ccc2c(c1)CCN(C(=O)c1ccc(F)cc1)C2)N1CCCN(C2CCC2)CC1` [Example 134, [6-(4-Cyclobutyl-[1,4]diazepane-1-carbonyl)-3,4-dihydro-1H-isoquinolin-2-yl]-(4-fluoro-phenyl)-methanone]: affinity was put at a Ki of 1 nM.

For `O=C(c1ccc2c(c1)CCN(C(=O)c1ccc(Cl)cc1Cl)C2)N1CCCN(C2CCC2)CC1` [Example 143, [6-(4-Cyclobutyl-[1,4]diazepane-1-carbonyl)-3,4-dihydro-1H-isoquinolin-2-yl]-(2,4-dichloro-phenyl)-methanone], the Ki was 1 nM.

As for `CC(C)N1CCC(C(=O)N2CCc3cc(C(=O)N4CCOCC4)ccc3C2)CC1` [Example 149, [2-(1-Isopropyl-piperidine-4-carbonyl)-1,2,3,4-tetrahydro-isoquinolin-6-yl]-morpholin-4-yl-methanone], the Ki is 109 nM.

The compound `CCCN1CCc2cc(C(=O)N3CCN4CCCCC4C3)ccc2C1` (centres unmarked) [Example 181, (Octahydro-pyrido[1,2-a]pyrazin-2-yl)-(2-propyl-1,2,3,4-tetrahydro-isoquinolin-6-yl)-methanone] returned a Ki of 2 nM.

In turn, `CC(C)N1CCN(C(=O)c2ccc3c(c2)CCN(C(=O)c2ccc(O)cc2)C3)CC1` [Example 107, [2-(4-Hydroxy-benzoyl)-1,2,3,4-tetrahydro-isoquinolin-6-yl]-(4-isopropyl-piperazin-1-yl)-methanone] yielded a Ki of 34 nM.

In turn, `O=C(c1ccc2c(c1)CCN(C(=O)c1ccc(F)cc1)C2)N1CCN(C2CCCC2)CC1` [Example 67, (4-Cyclopentyl-piperazin-1-yl)-[2-(4-fluoro-benzoyl)-1,2,3,4-tetrahydro-isoquinolin-6-yl]-methanone] returned a Ki of 53 nM.

Turning to `O=C(C1CCCCC1)N1CCc2cc(CN3CCCN(C4CCC4)CC3)ccc2C1` [Example 171, [6-(4-Cyclobutyl-[1,4]diazepan-1-ylmethyl)-3,4-dihydro-1H-isoquinolin-2-yl]-cyclohexyl-methanone], the Ki was determined as 23 nM.

With `O=C(c1ccc2c(c1)CCN(C(=O)C1CCCCC1)C2)N1CCC(N2CCOCC2)CC1` [Example 158, Cyclohexyl-[6-(4-morpholin-4-yl-piperidine-1-carbonyl)-3,4-dihydro-1H-isoquinolin-2-yl]-methanone], affinity was put at a Ki of 4090 nM.

The compound `CN(C)c1ccc(C(=O)N2CCc3cc(C(=O)N4CCN(C5CCC5)CC4)ccc3C2)cc1` [Example 117, [6-(4-Cyclobutyl-piperazine-1-carbonyl)-3,4-dihydro-1H-isoquinolin-2-yl]-(4-dimethylamino-phenyl)-methanone] had a Ki of 13 nM.

Regarding `CC(C)(C)C(=O)N1CCc2cc(C(=O)N3CCN(C4CCC4)CC3)ccc2C1` [Example 41, 1-[6-(4-Cyclobutyl-piperazine-1-carbonyl)-3,4-dihydro-1H-isoquinolin-2-yl]-2,2-dimethyl-propan-1-one], the affinity, expressed as Ki, was 15 nM.

Consider `CC(C)(C)OC(=O)N1CCc2cc(C(=O)N3CCN(C4CCCC4)CC3)ccc2C1` [Example 2, 6-(4-Cyclopentyl-piperazine-1-carbonyl)-3,4-dihydro-1H-isoquinoline-2-carboxylic acid tert-butyl ester], for which the inhibitory constant (Ki) stood at 230 nM.

Compound `O=C(c1ccc2c(c1)CCN(C(=O)c1ccc(C3CCCCC3)cc1)C2)N1CCN(C2CCC2)CC1` [Example 132, (4-Cyclobutyl-piperazin-1-yl)-[2-(4-cyclohexyl-benzoyl)-1,2,3,4-tetrahydro-isoquinolin-6-yl]-methanone] returned a Ki of 100 nM.

`O=C(c1ccc2c(c1)CCN(S(=O)(=O)c1ccc(F)cc1)C2)N1CCN(C2CCC2)CC1` [Example 104, (4-Cyclobutyl-piperazin-1-yl)-[2-(4-fluoro-benzenesulfonyl)-1,2,3,4-tetrahydro-isoquinolin-6-yl]-methanone] gave a Ki of 16 nM.

The compound `O=C(C1CCCCC1)N1CCc2cc(CN3CCC[C@H]3CN3CCCC3)ccc2C1` [Example 169, Cyclohexyl-[6-(2-pyrrolidin-1-ylmethyl-pyrrolidin-1-ylmethyl)-3,4-dihydro-1H-isoquinolin-2-yl]-methanone] gave an inhibitory constant (Ki) of 269 nM.

Compound `O=C(c1ccc2c(c1)CCN(C(=O)C1CCCCC1)C2)N1CC2CCN(C3CCC3)C2C1` (centres unmarked) [Example 165, (1-Cyclobutyl-hexahydro-pyrrolo[3,4-b]pyrrol-5-yl)-(2-cyclohexanecarbonyl-1,2,3,4-tetrahydro-isoquinolin-6-yl)-methanone] came in with a Ki of 300 nM.

For the compound `CCCN1CCc2cc(C(=O)N3CCC(C(C)(C)O)CC3)ccc2C1` [Example 184, [4-(1-Hydroxy-1-methyl-ethyl)-piperidin-1-yl]-(2-Propyl-1,2,3,4-tetrahydro-isoquinolin-6-yl)-methanone], the inhibition constant Ki worked out at 4200 nM.

Consider `O=C(c1ccc2c(c1)CN(C(=O)C1CCCC1)CC2)N1CCCN(C2CCC2)CC1` [Example 37, [7-(4-Cyclobutyl-[1,4]diazepane-1-carbonyl)-3,4-dihydro-1H-isoquinolin-2-yl]-cyclopentyl-methanone], for which the affinity corresponds to a Ki of 1 nM.

For the compound `COc1ccccc1C(=O)N1CCc2cc(C(=O)N3CCN(C4CCCCC4)CC3)ccc2C1` [Example 78, (4-Cyclohexyl-piperazin-1-yl)-[2-(2-methoxy-benzoyl)-1,2,3,4-tetrahydro-isoquinolin-6-yl]-methanone], the Ki came to 70 nM.

In the case of `COC1CCCC(C(=O)N2CCc3cc(C(=O)N4CCCN(C5CCC5)CC4)ccc3C2)C1` (centres unmarked) [Example 146, [6-(4-Cyclobutyl-[1,4]diazepane-1-carbonyl)-3,4-dihydro-1H-isoquinolin-2-yl]-(3-methoxy-cyclohexyl)-methanone], the Ki stood at 1 nM.

In turn, `O=C(c1ccc2c(c1)CCN(C(=O)C1CCCCC1)C2)N1CCN2CCCC2C1` (centres unmarked) [Example 153, Cyclohexyl-[6-(hexahydro-pyrrolo[1,2-a]pyrazine-2-carbonyl)-3,4-dihydro-1H-isoquinolin-2-yl]-methanone] had a Ki of 54 nM.

The compound `CC(C)N1CCN(C(=O)c2ccc3c(c2)CCN(C(=O)c2ccccc2)C3)CC1` [Example 28, (2-Benzoyl-1,2,3,4-tetrahydro-isoquinolin-6-yl)-(4-isopropyl-piperazin-1-yl)-methanone] gave a Ki of 16 nM.

Turning to `O=C(c1ccc2c(c1)CCN(C(=O)c1cccc(Cl)c1)C2)N1CCN(C2CCCCC2)CC1` [Example 76, [2-(3-Chloro-benzoyl)-1,2,3,4-tetrahydro-isoquinolin-6-yl]-(4-cyclohexyl-piperazin-1-yl)-methanone], the Ki is 100 nM.

As to `O=C(c1ccc2c(c1)CCN(C(=O)c1ccc(Cl)cc1)C2)N1CCN(C2CCCCC2)CC1` [Example 77, [2-(4-Chloro-benzoyl)-1,2,3,4-tetrahydro-isoquinolin-6-yl]-(4-cyclohexyl-piperazin-1-yl)-methanone], the affinity, expressed as Ki, was 180 nM.

As for `CC(C)N1CCc2cc(C(=O)N3CCCCC3)ccc2C1` [Example 173, (2-Isopropyl-1,2,3,4-tetrahydro-isoquinolin-6-yl)-piperidin-1-yl-methanone], the Ki was 1800 nM.

In turn, `O=C(c1ccc2c(c1)CCN(C1CCCC1)C2)N1CCN2CCCCC2C1` (centres unmarked) [Example 192, (2-Cyclopentyl-1,2,3,4-tetrahydro-isoquinolin-6-yl)-(octahydro-pyrido[1,2-a]pyrazin-2-yl)-methanone] displayed a Ki of 1 nM.

Consider `N#Cc1ccc(CN2CCc3cc(C(=O)N4CCN(C5CCC5)CC4)ccc3C2)cc1` [Example 25, 4-[6-(4-Cyclobutyl-piperazine-1-carbonyl)-3,4-dihydro-1H-isoquinolin-2-ylmethyl]-benzonitrile], for which affinity was put at a Ki of 15 nM.

On to `O=C(c1ccc2c(c1)CN(C(=O)C1CCCCC1)CC2)N1CCCN(C2CCC2)CC1` [Example 38, [7-(4-Cyclobutyl-[1,4]diazepane-1-carbonyl)-3,4-dihydro-1H-isoquinolin-2-yl]-cyclohexyl-methanone], for which the Ki was 1 nM.

In the case of `CCCN1CCc2cc(C(=O)N3CCOCC3)ccc2C1` [Example 180, Morpholin-4-yl-(2-propyl-1,2,3,4-tetrahydro-isoquinolin-6-yl)-methanone], the Ki is 9000 nM.

Compound `N#Cc1ccc(C(=O)N2CCc3cc(C(=O)N4CCC[C@H]4CN4CCCC4)ccc3C2)cc1` [Example 53, (S)-4-[6-(2-Pyrrolidin-1-ylmethyl-pyrrolidine-1-carbonyl)-3,4-dihydro-1H-isoquinoline-2-carbonyl]-benzonitrile] had an inhibitory constant (Ki) of 9 nM.

With `O=C(C1CCCCC1)N1CCc2cc(C(=O)N3C[C@@H]4C[C@H]3CN4C3CCC3)ccc2C1` [Example 164, (1S,4S)-(5-Cyclobutyl-2,5-diaza-bicyclo[2.2.1]hept-2-yl)-(2-cyclohexanecarbonyl-1,2,3,4-tetrahydro-isoquinolin-6-yl)-methanone], the Ki amounted to 1150 nM.

Consider `O=C(c1ccc2c(c1)CCNC2)N1CCN(C2CCCC2)CC1` [Example 8, (4-Cyclopentyl-piperazin-1-yl)-(1,2,3,4-tetrahydro-isoquinolin-6-yl)-methanone], for which the Ki was found to be 11 nM.

The compound `Cc1ccccc1C(=O)N1CCc2cc(C(=O)N3CCC[C@H]3CN3CCCC3)ccc2C1` [Example 54, (S)-[6-(2-Pyrrolidin-1-ylmethyl-pyrrolidine-1-carbonyl)-3,4-dihydro-1H-isoquinolin-2-yl]-o-tolyl-methanone] showed a Ki of 9 nM.

As to `O=C(c1ccccc1)N1CCc2cc(C(=O)N3CCC[C@H]3CN3CCCC3)ccc2C1` [Example 48, (S)-Phenyl-[6-(2-pyrrolidin-1-ylmethyl-pyrrolidine-1-carbonyl)-3,4-dihydro-1H-isoquinolin-2-yl]-methanone], affinity was put at a Ki of 18 nM.
